The structures appear in SMILES notation.

The test addresses MtKatG (Mycobacterium tuberculosis, UniProt P9WIE5).

MtKatG, sequence (P9WIE5 whole entry): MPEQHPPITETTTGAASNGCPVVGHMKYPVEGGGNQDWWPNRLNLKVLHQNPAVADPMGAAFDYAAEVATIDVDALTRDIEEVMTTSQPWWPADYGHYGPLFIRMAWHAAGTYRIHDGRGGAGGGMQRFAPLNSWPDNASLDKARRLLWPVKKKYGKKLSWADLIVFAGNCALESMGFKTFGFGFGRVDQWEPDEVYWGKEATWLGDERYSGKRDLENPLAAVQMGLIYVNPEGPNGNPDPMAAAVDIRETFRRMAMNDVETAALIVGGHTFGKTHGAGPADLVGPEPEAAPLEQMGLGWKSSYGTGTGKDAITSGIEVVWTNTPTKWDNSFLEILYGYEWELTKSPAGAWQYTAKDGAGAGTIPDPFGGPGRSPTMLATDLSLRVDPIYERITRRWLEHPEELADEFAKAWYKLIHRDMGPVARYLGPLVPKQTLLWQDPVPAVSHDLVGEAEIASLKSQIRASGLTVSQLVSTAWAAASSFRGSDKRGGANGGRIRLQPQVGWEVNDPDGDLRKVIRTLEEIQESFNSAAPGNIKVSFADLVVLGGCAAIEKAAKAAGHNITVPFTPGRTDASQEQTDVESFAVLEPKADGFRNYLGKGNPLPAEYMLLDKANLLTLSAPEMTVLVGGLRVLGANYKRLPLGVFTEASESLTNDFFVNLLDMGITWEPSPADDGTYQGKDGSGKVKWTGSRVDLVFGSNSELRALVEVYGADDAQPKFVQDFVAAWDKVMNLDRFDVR

As usually defined, the Km is the substrate concentration at which the rate is half of its maximum. Turning to `CC(C)(C)OO` [t-BuOOH], the Km was 19 ± 6 mM.

These data come from article doi:10.1101/2024.09.05.611129v1 (biorxiv, 2024).
